Reference: ChEMBL document CHEMBL1795338, “Identification of pentacyclic triterpenes derivatives as potent inhibitors against glycogen phosphorylase based on 3D-QSAR studies” (Eur J Med Chem, 2011)

Molecular target: T1, Glycogen phosphorylase, muscle form (Oryctolagus cuniculus, UniProt P00489)
T1 sequence (P00489 whole entry): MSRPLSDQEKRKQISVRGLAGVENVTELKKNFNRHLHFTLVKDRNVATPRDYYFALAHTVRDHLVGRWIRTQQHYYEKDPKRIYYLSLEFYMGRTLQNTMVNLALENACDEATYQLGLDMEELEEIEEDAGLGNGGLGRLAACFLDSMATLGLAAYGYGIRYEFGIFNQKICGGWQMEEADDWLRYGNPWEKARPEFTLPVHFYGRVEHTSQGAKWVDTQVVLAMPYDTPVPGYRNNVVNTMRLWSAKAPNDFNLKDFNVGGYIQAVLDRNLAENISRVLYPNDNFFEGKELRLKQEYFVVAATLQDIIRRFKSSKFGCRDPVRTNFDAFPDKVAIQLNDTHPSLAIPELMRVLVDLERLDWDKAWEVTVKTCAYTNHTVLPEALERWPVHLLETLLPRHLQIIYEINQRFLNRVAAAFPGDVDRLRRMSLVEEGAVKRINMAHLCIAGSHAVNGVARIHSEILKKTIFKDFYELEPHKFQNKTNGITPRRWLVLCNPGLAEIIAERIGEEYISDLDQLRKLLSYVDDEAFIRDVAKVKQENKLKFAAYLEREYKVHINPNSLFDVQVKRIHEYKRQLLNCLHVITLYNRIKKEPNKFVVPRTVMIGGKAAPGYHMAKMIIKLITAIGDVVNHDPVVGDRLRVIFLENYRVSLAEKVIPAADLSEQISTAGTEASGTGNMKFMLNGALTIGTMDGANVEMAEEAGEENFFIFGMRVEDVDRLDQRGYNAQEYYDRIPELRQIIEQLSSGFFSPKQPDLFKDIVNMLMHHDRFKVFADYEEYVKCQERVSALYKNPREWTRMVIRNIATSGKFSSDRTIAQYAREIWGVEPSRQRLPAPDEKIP
Assay: Inhibition of rabbit muscle glycogen phosphorylase A assessed as release of phosphate from glucose-1-phosphate after 25 mins by microplate reader based method

SMILES | IC50 [µM]
Cc1ccc(NCCCCCCOC(=O)[C@]23CCC(C)(C)C[C@H]2C2=CC[C@@H]4[C@@]5(C)CC[C@H](O)C(C)(C)[C@@H]5CC[C@@]4(C)[C@]2(C)CC3)cc1 | 28.1
CC1(C)CC[C@]2(C(=O)OCc3ccccc3)CC[C@]3(C)C(=CC[C@@H]4[C@@]5(C)C[C@H](O)[C@H](O)C(C)(C)[C@@H]5CC[C@]43C)[C@@H]2C1 [BENZYL AUGUSTATE] | 21.7
CC1(C)CC[C@]2(C(=O)OCC(=O)O)CC[C@]3(C)C(=CC[C@@H]4[C@@]5(C)CC[C@H](O)C(C)(C)[C@@H]5CC[C@]43C)[C@@H]2C1 | 62.6
CCCCCCCCCCCC(=O)OCc1cn(CC(=O)O[C@H]2CC[C@]3(C)[C@H]4CC=C5[C@@H]6CC(C)(C)CC[C@]6(C(=O)OCc6ccccc6)CC[C@@]5(C)[C@]4(C)CC[C@H]3C2(C)C)nn1 | 7.76
CCC(=O)O[C@@H]1C[C@]2(C)[C@H]3CC=C4[C@@H]5CC(C)(C)CC[C@]5(C(=O)O)CC[C@@]4(C)[C@]3(C)CC[C@H]2C(C)(C)[C@H]1OC(=O)CC | 10.5
C[C@H]1[C@H](C)CC[C@]2(C(=O)O)CC[C@]3(C)C(=CC[C@@H]4[C@@]5(C)CC[C@H](OC(=O)CCC(=O)O)C(C)(C)[C@@H]5CC[C@]43C)[C@H]12 | 27.6
CC1(C)CC[C@]2(C(=O)O)CC[C@]3(C)C(=CC[C@@H]4[C@@]5(C)CC6C=NOC6C(C)(C)[C@@H]5CC[C@]43C)[C@@H]2C1 (some centres undefined) | 12.7
CC(=O)OCCCCCCOC(=O)[C@H](O)CC(=O)OCCCCCCOC(=O)[C@]12CCC(C)(C)C[C@H]1C1=CC[C@@H]3[C@@]4(C)CC[C@H](O)C(C)(C)[C@@H]4CC[C@@]3(C)[C@]1(C)CC2 | 12.3
CC1(C)CC[C@]2(C(=O)OCCCCCCN)CC[C@]3(C)C(=CC[C@@H]4[C@@]5(C)CC[C@H](O)C(C)(C)[C@@H]5CC[C@]43C)[C@@H]2C1 | 14.1
CC1(C)CC[C@]2(C(=O)O)CC[C@]3(C)C(=CC[C@@H]4[C@@]5(C)C/C(=N\O)C(=O)C(C)(C)[C@@H]5CC[C@]43C)[C@@H]2C1 | 26.1
C[C@H]1[C@H](C)CC[C@]2(C(=O)OCc3ccccc3)CC[C@]3(C)C(=CC[C@@H]4[C@@]5(C)Cc6cn[nH]c6C(C)(C)[C@@H]5CC[C@]43C)[C@H]12 | 72.9
CC(=O)O[C@H]1CC[C@]2(C)[C@H]3CC=C4[C@@H]5CC(C)(C)CC[C@]5(C(=O)OC[C@H](O)[C@H]5OC(=O)C(O)=C5O)CC[C@@]4(C)[C@]3(C)CC[C@H]2C1(C)C | 2.23
CCCCNCCCCCCOC(=O)[C@]12CCC(C)(C)C[C@H]1C1=CC[C@@H]3[C@@]4(C)CC[C@H](O)C(C)(C)[C@@H]4CC[C@@]3(C)[C@]1(C)CC2 | 12.6
CC1(C)CC[C@]2(C(=O)O)CC[C@]3(C)C(=CC[C@@H]4[C@@]5(C)CC[C@H](OC(=O)/C=C\c6ccc(Cl)cc6)C(C)(C)[C@@H]5CC[C@]43C)[C@@H]2C1 | 3.3
CC1(C)CC[C@]2(C(=O)OCc3ccccc3)CC[C@]3(C)C(=CC[C@@H]4[C@@]5(C)Cc6cnn(-c7ccc(Cl)cc7)c6C(C)(C)[C@@H]5CC[C@]43C)[C@@H]2C1 | 11.2
CC1(C)CC[C@]2(C(=O)OCc3ccccc3)CC[C@]3(C)C(=CC[C@@H]4[C@@]5(C)CC[C@H](OC(=O)[n+]6ccccc6)C(C)(C)[C@@H]5CC[C@]43C)[C@@H]2C1 | 5.39
C[C@H]1[C@H](C)CC[C@]2(C(=O)OCc3ccccc3)CC[C@]3(C)C(=CC[C@@H]4[C@@]5(C)C[C@H](O)[C@@H](O)C(C)(C)[C@@H]5CC[C@]43C)[C@H]12 | 1.25
CC1(C)CC[C@]2(C(=O)O)CC[C@]3(C)C(=CC[C@@H]4[C@@]5(C)C[C@H](O)CC(C)(C)[C@@H]5CC[C@]43C)[C@@H]2C1 | 22.7
C[C@H]1[C@H](C)CC[C@]2(C(=O)OCn3cccn3)CC[C@]3(C)C(=CC[C@@H]4[C@@]5(C)C[C@@H](O)[C@H](O)C(C)(C)[C@@H]5CC[C@]43C)[C@H]12 | 62.1
CO[C@H]1O[C@H](Cn2cc(COC(=O)[C@]34CCC(C)(C)C[C@H]3C3=CC[C@@H]5[C@@]6(C)CC[C@H](O)C(C)(C)[C@@H]6CC[C@@]5(C)[C@]3(C)CC4)nn2)[C@@H](O)[C@H](O)[C@H]1O | 1.14
CC1(C)CC[C@]2(C(=O)OCc3ccccc3)CC[C@]3(C)C(=CC[C@@H]4[C@@]5(C)CC[C@H](OC(=O)c6ccc([N+](=O)[O-])cc6)C(C)(C)[C@@H]5CC[C@]43C)[C@@H]2C1 | 16.1
CC(=O)OCc1cn(CCCCCCn2cc(COC(=O)[C@]34CCC(C)(C)C[C@H]3C3=CC[C@@H]5[C@@]6(C)CC[C@H](O)C(C)(C)[C@@H]6CC[C@@]5(C)[C@]3(C)CC4)nn2)nn1 | 20.7
CC1(C)CC[C@]2(C(=O)OCc3ccccc3)CC[C@]3(C)C(=CC[C@@H]4[C@@]5(C)CC[C@H](OC(=O)CCl)C(C)(C)[C@@H]5CC[C@]43C)[C@@H]2C1 | 12.6
CC1(C)CC[C@]2(C(=O)OCc3ccccc3)CC[C@]3(C)C(=CC[C@@H]4[C@@]5(C)C/C(=N\O)C(=O)C(C)(C)[C@@H]5CC[C@]43C)[C@@H]2C1 | 46.8
CC1(C)CC[C@]2(C(=O)OCc3ccccc3)CC[C@]3(C)C(=CC[C@@H]4[C@@]5(C)C/C(=N\OCc6ccc(Cl)cc6Cl)C(=O)C(C)(C)[C@@H]5CC[C@]43C)[C@@H]2C1 | 8
COC(=O)[C@H](Cc1ccccc1)NC(=O)[C@]12CC[C@@H](C)[C@H](C)[C@H]1C1=CC[C@@H]3[C@@]4(C)C[C@@H](OC(C)=O)[C@H](OC(C)=O)C(C)(C)[C@@H]4CC[C@@]3(C)[C@]1(C)CC2 | 23.9
CCCOC(=O)[C@]12CC[C@@H](C)[C@H](C)[C@H]1C1=CC[C@@H]3[C@@]4(C)C[C@@H](O)[C@H](O)C(C)(C)[C@@H]4CC[C@@]3(C)[C@]1(C)CC2 | 82.5
COC(=O)[C@H](Cc1ccc(O)cc1)NC(=O)[C@]12CC[C@@H](C)[C@H](C)[C@H]1C1=CC[C@@H]3[C@@]4(C)C[C@@H](OC(C)=O)[C@H](OC(C)=O)C(C)(C)[C@@H]4CC[C@@]3(C)[C@]1(C)CC2 | 11.2
CC(=O)O[C@@H]1O[C@H](OC(=O)[C@]23CCC(C)(C)C[C@H]2C2=CC[C@@H]4[C@@]5(C)C[C@@H](O)[C@H](O)C(C)(C)[C@@H]5CC[C@@]4(C)[C@]2(C)CC3)[C@@H](OC(C)=O)[C@H](OC(C)=O)[C@H]1OC(C)=O | 18.6
